Measured values from patent US20030217389A1, “Novel peptides and methods of use” (priority 2002, published 2003).

Key:
Tobacco suspension cells = test: Plant cell culture alkalinization assay; format: cell-based
Description: Plant Cell Culture Alkalinization Assay: Tobacco suspension cells were maintained in MS media. The media was adjusted to pH 5.6 with KOH. Three ml aliquots of one week old cultures were transferred into 35 ml of media in 125 ml flasks and placed on an orbital shaker at 160 rpm in the dark for growth. Cells were used for assay 3-5 days after transfer (cell density was approximately 0.5 to 1.5×10^6 cells/ml). One ml of cells was aliquoted into each well of 24-well cell culture cluster plates (Costar, number 3527, Corning Incorporated, Corning, N.Y.) and allowed to equilibrate on an orbital shaker at 160 rpm for 1 hr. Aliquots (1 to 10 μl) of fractions to be tested were added to the cells and the increasing pH change of the medium (medium alkalinization) was detected with time using an Orion Model EA940 pH meter with an Orion semi-micro pH electrode (Catalog number 8103BN, Orion, Beverly, Mass.).

tomato apical meristems = test: Growth of excised tomato apical meristems in liquid culture; format: cell-based, Lycopersicon esculentum; settings: for growth of isolated tomato apical meristems: 100 nM peptide in liquid media, evaluated on the 16th day, compared with control peptide
Description: Tomato plants (Lycopersicon esculentum cv. Castlemart) were grown in a growth chamber with 17 hours of light (300 μmol m^−2s^−1) per day at 28° C. and seven hour nights at 18° C. Apical meristems were excised from shoot tips of two week old tomato plants. Shoot tips (1-2 cm long) were surface sterilized using 70% ethanol solution for 20-30 seconds, followed by a 20 minute incubation in a 1.5% (v/v) commercial bleach solution. Shoot tips were washed once in sterilized water after the ethanol treatment, and four times after bleaching. Apical meristems (including meristematic tissue, dome, with a leaf primordium) were carefully isolated under a stereoscope.
Isolated meristems were immediately inoculated into a liquid media (MS salts and vitamin mixture powder (Life Technologies) and 20 g/L of sucrose) containing either tomato RALF (100 nM) (SEQ ID NO: 4), or a control peptide (100 nM) that was not capable of stimulating meristem growth. Four meristems were inoculated in a 125 mL Erlenmeyer flask containing 10 mL of media, and flasks were gently shaken at 60 rpm. Sixteen meristems were tested for each treatment in four separate flasks. The liquid media was replaced with fresh media on the 5th, 12th and 14th days of the experiment. The experiment was evaluated and terminated on the 16th day.

[1] = system: liquid tomato cell culture; test: Alkalinization of a liquid tomato cell culture; format: cell-based

Row | Sequence | alkalinization of the medium of the liquid plant cell culture (pH change) (Tobacco suspension cells) | growth of isolated tomato apical meristems (tomato apical meristems) | growth of isolated tomato apical meristems (tomato apical meristems; listed as tomato RALF (SEQ ID NO: 4)) | rate of meristem tissue growth in the presence versus the absence of the polypeptide (tomato apical meristems; experiments of Example 3) | alkalinization of a liquid tomato cell culture [1]
1 | ATKKYISYGALQKNSVPCSRRGASYYNCKPGAQANPYSRGCSAITRCRS (listed as Nicotiana tabacum) [tobacco RALF polypeptide, approximately 5 kDa polypeptide isolated from tobacco leaves] | rapidly induced alkalinization |  |  |  | 
2 | ATKKYISYGALQKNSVPCSRRGASYYNCKPGAQANPYTRGCSAITRCRS (listed as Lycopersicon esculentum) [tomato RALF polypeptide (SEQ ID NO: 4), chemically synthesized tomato RALF polypeptide] |  | stimulates the growth | stimulated growth | at least twice as fast | induce alkalinization
